Read-outs that look alike come from different tables or passages of the source.
Columns and labels:
[1] = tested on: Onchocerca gutturosa adult male worms; assay: Onchocerca gutturosa in vitro screening model: adult worm motility score and MTT/formazan viability; format: cell-based
Dirofilaria immitis = assay: Heartworm screen Dirofilaria immitis (stage DiMF/DiL4 not specified in the tables); format: cell-based; settings: read-out: D. immitis Activity class
[2] = tested on: Adult and microfilariae B. malayi; assay: In vitro parasite motility assay, B. malayi adult worms and microfilariae; format: cell-based; settings: Brugia malayi, read-out: B. malayi Activity class
[3] = tested on: Adult and microfilariae B. pahangi; assay: In vitro parasite motility assay, B. pahangi adult worms and microfilariae; format: cell-based, Brugia pahangi
[4] = read-out: O. gutt Activity class

Row | Structure (SMILES) | IC50 [1, 4] [nM] | IC50 (Dirofilaria immitis) [nM] | other results
1 | CN(C)C(=O)c1cccnc1S(=O)(=O)Nc1cccc2cccnc12 [Compound 207, N,N-dimethyl-2-(N-quinolin-8-ylsulfamoyl) nicotinamide] | 500 to 5000 | 500 to 5000 | 
2 | CN(C)c1cccnc1S(=O)(=O)Nc1cccc2cccnc12 [Compound 208, 3-(dimethylamino)-N-(quinolin-8-yl)pyridine-2-sulfonamide] | < 200 | 500 to 5000 | 
3 | CC(C)c1cccnc1S(=O)(=O)Nc1cccc2cccnc12 [Compound 211, 3-isopropyl-N-(quinolin-8-yl)pyridine-2-sulfonamide] | < 200 | 500 to 5000 | 
4 | Cc1cccnc1S(=O)(=O)Nc1cccc2cccnc12 [Compound 213, 3-methyl-N-(quinolin-8-yl)pyridine-2-sulfonamide] | < 200 | 500 to 5000 | 
5 | O=S(=O)(Nc1cccc2cccnc12)c1ncccc1Cl [Compound 215, 3-chloro-N-(quinolin-8-yl)pyridine-2-sulfonamide] | < 200 | 500 to 5000 | 
6 | O=S(=O)(Nc1cccc2cccnc12)c1cc(Cl)ccn1 [Compound 220, 4-chloro-N-(quinolin-8-yl)pyridine-2-sulfonamide] | < 200 | < 200 | 
7 | O=S(=O)(Nc1cccc2cccnc12)c1cccc(Cl)n1 [Compound 221, 6-chloro-N-(quinolin-8-yl)pyridine-2-sulfonamide] | < 200 | 500 to 5000 | 
8 | COc1ccnc(S(=O)(=O)Nc2cccc3cccnc23)c1 [Compound 222, 4-methoxy-N-(quinolin-8-yl)pyridine-2-sulfonamide] | < 200 | 200 to 500 | 
9 | O=S(=O)(Nc1cccc2cccnc12)c1nccc2ccccc12 [Compound 225, N-(quinolin-8-yl)isoquinoline-1-sulfonamide] | < 200 | 500 to 5000 | 
10 | Cc1cn(C)c(S(=O)(=O)Nc2cccc3cccnc23)n1 [Compound 231, 1,4-dimethyl-N-(quinolin-8-yl)-1H-imidazole-2-sulfonamide] | 500 to 5000 | < 200 | 
11 | CC(C)Oc1ccc(S(=O)(=O)Nc2cccc3cccnc23)nc1 [Compound 242, 5-isopropoxy-N-(quinolin-8-yl)pyridine-2-sulfonamide] | < 200 | 200 to 500 | 
12 | CC(C)Oc1ccnc(S(=O)(=O)Nc2cccc3cccnc23)c1 [Compound 245, 4-isopropoxy-N-(quinolin-8-yl)pyridine-2-sulfonamide] | < 200 | 200 to 500 | 
13 | Cc1ccc(S(=O)(=O)Nc2cccc3cccnc23)nc1 [Compound 248, 5-methyl-N-(quinolin-8-yl)pyridine-2-sulfonamide] | 500 to 5000 | 200 to 500 | 
14 | Nc1cccc(S(=O)(=O)Nc2cccc3cccnc23)n1 [Compound 264, 6-amino-N-(quinolin-8-yl)pyridin-2-sulfonamide] | 500 to 5000 | 500 to 5000 | 
15 | Cc1ccnc(S(=O)(=O)Nc2cccc3cccnc23)c1 [Compound 265, 4-methyl-N-(quinolin-8-yl)pyridine-2-sulfonamide] |  | 200 to 500 | IC50 ([1]; read-out: O. gutt Activity class, in vitro motility): < 200 nM
16 | O=S(=O)(Nc1cccc2cccnc12)c1cn[nH]c1 [Compound 267, N-(quinolin-8-yl)-1H-pyrazol-4-sulfonamide] |  |  | IC50 [2]: 500 to 5000 nM
17 | Cn1cc(S(=O)(=O)Nc2cccc3cccnc23)cn1 [Compound 268, 1-methyl-N-(quinolin-8-yl)-1H-pyrazole-4-sulfonamide] |  |  | IC50 [2]: 500 to 5000 nM; B. phange Activity class ([3]; activity against microfilaria (level D)): D (activity against microfilaria at compound concentrations below 1 μM (activity level D))
18 | O=S(=O)(Nc1cccc2cccnc12)c1ncccc1F [Compound 269, 3-fluoro-N-(quinolin-8-yl)pyridine-2-sulfonamide] | < 200 | 500 to 5000 | B. phange Activity class ([3]; activity against adult filaria (level E)): E (activity against adult filaria at compound concentrations below 1 μM (activity level E))
19 | O=S(=O)(Nc1cccc2cccnc12)c1cc2ccccc2cn1 [Compound 270, N-(quinolin-8-yl)isoquinoline-3-sulfonamide] | < 200 | 200 to 500 | 
20 | O=S(=O)(Nc1cccc2cccnc12)c1cnccn1 [Compound 271, N-(quinolin-8-yl)pyrazine-2-sulfonamide] | < 200 | 500 to 5000 | 
21 | Cc1cccc(S(=O)(=O)Nc2cccc3cccnc23)n1 [Compound 272, 6-methyl-N-(quinolin-8-yl)pyridine-2-sulfonamide] | < 200 | 500 to 5000 | 
22 | Cc1ccc(S(=O)(=O)Nc2cccc3cccnc23)o1 [Compound 276, 5-methyl-N-(quinolin-8-yl)furan-2-sulfonamide] | 200 to 500 | 200 to 500 | 
23 | O=S(=O)(Nc1cccc2cccnc12)c1ccccn1 [Compound 280, N-(quinolin-8-yl)pyridine-2-sulfonamide] | 500 to 5000 | 200 to 500 | 

Source: patent US20240148744A1 (Celgene Corporation, priority 2021, published 2024)
